“And” between values parts separate entries of the source, which are not always exact repeats. Equal entries are not always repeated. Toxic doses and inconclusive results are not listed. Residues, ends and D or L forms follow the SMILES beside them. *: point of attachment. Trt = c1ccc(C(c2ccccc2)(c2ccccc2)*)cc1; Cbz = O=C(OCc1ccccc1)*; Bn = c1ccc(C*)cc1; βAla = NCCC(=O)O
Tested on: B6C3F1 mice, Lewis lung carcinoma iv, survival T/C
Test: NCI In Vivo Anticancer Drug Screen. Data for tumor model Lewis Lung Carcinoma (intravenous) in B6C3F1 mice
Settings: endpoint: median survival time, higher = longer survival
In short: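 Antitumor activity is assessed in tumor-bearing mice by comparing survival after compound treatment against vehicle-treated controls, reported as a T/C ratio.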

[1] = dose: 6.25 mg/kg/injection, schedule: Q01DX009 (ip), vehicle: water
[2] = dose: 12.5 mg/kg/injection, schedule: Q01DX009 (ip), vehicle: water
[3] = dose: 50.0 mg/kg/injection, schedule: Q01DX009 (ip), vehicle: Klucel (hydroxypropylcellulose) (HPC)
[4] = dose: 100.0 mg/kg/injection, schedule: Q01DX009 (ip), vehicle: Klucel (hydroxypropylcellulose) (HPC)
[5] = dose: 12.5 mg/kg/injection, schedule: Q01DX009 (ip), vehicle: saline with Tween-80
[6] = dose: 25.0 mg/kg/injection, schedule: Q01DX009 (ip), vehicle: saline with Tween-80
[7] = dose: 50.0 mg/kg/injection, schedule: Q01DX009 (ip), vehicle: saline with Tween-80
[8] = dose: 3.12 mg/kg/injection, schedule: Q01DX009 (ip), vehicle: saline
[9] = dose: 6.25 mg/kg/injection, schedule: Q01DX009 (ip), vehicle: saline
[10] = dose: 12.5 mg/kg/injection, schedule: Q01DX009 (ip), vehicle: saline
[11] = dose: 25.0 mg/kg/injection, schedule: Q01DX009 (ip), vehicle: saline
[12] = dose: 50.0 mg/kg/injection, schedule: Q01DX009 (ip), vehicle: saline

Nc1cc(Cl)c2[nH]cnc2n1
T/C [1]: 94 % of control | T/C [2]: 98 % of control | T/C (dose: 25.0 mg/kg/injection, schedule: Q01DX009 (ip), vehicle: water): 100 % of control | T/C (dose: 50.0 mg/kg/injection, schedule: Q01DX009 (ip), vehicle: water): 107 % of control | T/C (dose: 100.0 mg/kg/injection, schedule: Q01DX009 (ip), vehicle: water): 109 % of control | T/C (dose: 200.0 mg/kg/injection, schedule: Q01DX009 (ip), vehicle: water): 100 % of control

COc1cc(C2c3cc4c(cc3C(O)C(CO)C2CO)OCO4)cc(OC)c1OC (stereo unspecified)
T/C (dose: 12.5 mg/kg/injection, schedule: Q01DX009 (ip), vehicle: Klucel (hydroxypropylcellulose) (HPC)): 102 % of control | T/C (dose: 25.0 mg/kg/injection, schedule: Q01DX009 (ip), vehicle: Klucel (hydroxypropylcellulose) (HPC)): 104 % of control | T/C [3]: 102 % of control | T/C [4]: 113 % of control

O/N=C/c1ccccc1O.O/N=C/c1ccccc1O.[Cu]
T/C (dose: 1.56 mg/kg/injection, schedule: Q01DX009 (ip), vehicle: saline with Tween-80): 113 % of control | T/C (dose: 3.12 mg/kg/injection, schedule: Q01DX009 (ip), vehicle: saline with Tween-80): 100 % of control | T/C (dose: 6.25 mg/kg/injection, schedule: Q01DX009 (ip), vehicle: saline with Tween-80): 104 % of control | T/C [5]: 96 % of control | T/C [6]: 104 % of control | T/C [7]: 96 % of control

COC1CC(C)C(OC)C2=CC(=O)C=C(NC(=O)/C(C)=C/C=C\C(C)C(OC(N)=O)/C(C)=C\C(C)C1OC)C2=O (stereo unspecified)
T/C (dose: 5.0 mg/kg/injection, schedule: Q01DX009 (ip), vehicle: saline + Tween-80 + alcohol): 99 % of control | T/C (dose: 10.0 mg/kg/injection, schedule: Q01DX009 (ip), vehicle: saline + Tween-80 + alcohol): 112 % of control

CCOC(=O)CNC(=O)CCCCSc1ncnc2nc[nH]c12
T/C (dose: 40.0 mg/kg/injection, schedule: Q01DX009 (ip), vehicle: Klucel (hydroxypropylcellulose) (HPC)): 101 % of control | T/C (dose: 80.0 mg/kg/injection, schedule: Q01DX009 (ip), vehicle: Klucel (hydroxypropylcellulose) (HPC)): 112 % of control | T/C (dose: 160.0 mg/kg/injection, schedule: Q01DX009 (ip), vehicle: Klucel (hydroxypropylcellulose) (HPC)): 110 % of control | T/C (dose: 320.0 mg/kg/injection, schedule: Q01DX009 (ip), vehicle: Klucel (hydroxypropylcellulose) (HPC)): 95 % of control | T/C (dose: 640.0 mg/kg/injection, schedule: Q01DX009 (ip), vehicle: Klucel (hydroxypropylcellulose) (HPC)): 111 % of control

CCC(C(=O)O)C(=O)O.[NH2-].[NH2-].[Pt+2]
T/C [8]: 102 % of control | T/C [9]: 103 % of control | T/C [10]: 120 % of control | T/C [11]: 112 % of control and 120 % of control | T/C [12]: 109 % of control and 118 % of control

CC(=O)C1=C(O)C2(O)C(=O)c3c(c(C)c4ccc(C)c(O)c4c3O)CC2C(N)C1=O (stereo unspecified)
T/C (dose: 3.75 mg/kg/injection, schedule: Q01DX009 (ip), vehicle: saline + alcohol): 95 % of control and 105 % of control | T/C (dose: 7.3 mg/kg/injection, schedule: Q01DX009 (ip), vehicle: saline + alcohol): 102 % of control | T/C (dose: 7.5 mg/kg/injection, schedule: Q01DX009 (ip), vehicle: saline + alcohol): 95 % of control | T/C (dose: 15.0 mg/kg/injection, schedule: Q01DX009 (ip), vehicle: saline + alcohol): 102 % of control and 107 % of control | T/C (dose: 30.0 mg/kg/injection, schedule: Q01DX009 (ip), vehicle: saline + alcohol): 98 % of control and 107 % of control | T/C (dose: 60.0 mg/kg/injection, schedule: Q01DX009 (ip), vehicle: saline + alcohol): 102 % of control and 110 % of control | T/C (dose: 120.0 mg/kg/injection, schedule: Q01DX009 (ip), vehicle: saline + alcohol): 112 % of control

[CH3][Sn]([CH3])([Cl])[S]CCN
T/C [8]: 99 % of control | T/C [9]: 105 % of control | T/C [10]: 99 % of control | T/C [11]: 100 % of control | T/C [12]: 96 % of control

O=NN(CCF)C(=O)NCCO
T/C (dose: 5.0 mg/kg/injection, schedule: Q01DX009 (ip), vehicle: saline): 238 % of control | T/C (dose: 10.0 mg/kg/injection, schedule: Q01DX009 (ip), vehicle: saline): 215 % of control

OC1(CSc2ccccc2)CCCCC1
T/C [5]: 95 % of control and 119 % of control | T/C [6]: 107 % of control | T/C [7]: 94 % of control and 114 % of control | T/C (dose: 100.0 mg/kg/injection, schedule: Q01DX009 (ip), vehicle: saline with Tween-80): 103 % of control and 106 % of control | T/C (dose: 200.0 mg/kg/injection, schedule: Q01DX009 (ip), vehicle: saline with Tween-80): 100 % of control and 105 % of control | T/C (dose: 400.0 mg/kg/injection, schedule: Q01DX009 (ip), vehicle: saline with Tween-80): 108 % of control and 110 % of control

COc1cccc2c1C(=O)c1c(O)c3c(c(O)c1C2=O)C[C@@](O)(/C(C)=N\O)C[C@@H]3OC1CC(N)C(O)C(C)O1 (stereo partly specified)
T/C (dose: 3.12 mg/kg/injection, schedule: Q01DX009 (ip), vehicle: water): 90 % of control | T/C [1]: 86 % of control | T/C [2]: 90 % of control

COC12C(COC(=O)NCCO)C3=C(C(=O)C(C)=C(N)C3=O)N1CC1NC12 (stereo unspecified)
T/C (dose: 3.12 mg/kg/injection, schedule: Q01DX009 (ip), vehicle: Klucel (hydroxypropylcellulose) (HPC)): 111 % of control | T/C (dose: 6.25 mg/kg/injection, schedule: Q01DX009 (ip), vehicle: Klucel (hydroxypropylcellulose) (HPC)): 102 % of control

CC(CN1CC(=O)NC(=O)C1)N1CC(=O)NC(=O)C1 (stereo unspecified)
T/C (dose: 108.0 mg/kg/injection, schedule: Q04DX003 (ip), vehicle: Klucel (hydroxypropylcellulose) (HPC)): 109 % of control | T/C (dose: 180.0 mg/kg/injection, schedule: Q04DX003 (ip), vehicle: Klucel (hydroxypropylcellulose) (HPC)): 119 % of control | T/C (dose: 300.0 mg/kg/injection, schedule: Q04DX003 (ip), vehicle: Klucel (hydroxypropylcellulose) (HPC)): 158 % of control

CC(=O)OCC1OC([S-])C(OC(C)=O)C(OC(C)=O)C1OC(C)=O.CC[PH+](CC)CC.CC[PH+](CC)CC.[Au].[Au] (stereo unspecified)
T/C (dose: 0.62 mg/kg/injection, schedule: Q01DX009 (ip), vehicle: Klucel (hydroxypropylcellulose) (HPC)): 91 % of control and 104 % of control | T/C (dose: 1.25 mg/kg/injection, schedule: Q01DX009 (ip), vehicle: Klucel (hydroxypropylcellulose) (HPC)): 98 % of control and 106 % of control | T/C (dose: 2.5 mg/kg/injection, schedule: Q01DX009 (ip), vehicle: Klucel (hydroxypropylcellulose) (HPC)): 100 % of control and 109 % of control | T/C (dose: 5.0 mg/kg/injection, schedule: Q01DX009 (ip), vehicle: Klucel (hydroxypropylcellulose) (HPC)): 101 % of control | T/C (dose: 10.0 mg/kg/injection, schedule: Q01DX009 (ip), vehicle: Klucel (hydroxypropylcellulose) (HPC)): 102 % of control and 104 % of control

CNC(=O)c1cccc2c(Nc3ccc(NS(C)(=O)=O)cc3OC)c3cccc(C)c3nc12
T/C (dose: 3.0 mg/kg/injection, schedule: Q04DX003 (ip), vehicle: saline + alcohol): 114 % of control | T/C (dose: 3.12 mg/kg/injection, schedule: Q04DX003 (ip), vehicle: saline + alcohol): 118 % of control | T/C (dose: 6.0 mg/kg/injection, schedule: Q04DX003 (ip), vehicle: saline + alcohol): 156 % of control | T/C (dose: 12.5 mg/kg/injection, schedule: Q04DX003 (ip), vehicle: saline + alcohol): 181 % of control and 309 % of control (2×) | T/C (dose: 12.5 mg/kg/injection, schedule: Q04DX003 (ip), vehicle: water): 178 % of control | T/C (dose: 25.0 mg/kg/injection, schedule: Q04DX003 (ip), vehicle: water): 260 % of control

COC(=O)C(CSC(c1ccccc1)(c1ccccc1)c1ccccc1)NC(=O)C(CSCc1ccccc1)NC(=O)CCNC(=O)OCc1ccccc1 (stereo unspecified) ({Cbz-βAla}-Cys(Bn)-Cys(Trt)-OMe; configuration not given here)
T/C [3]: 93 % of control | T/C [4]: 98 % of control | T/C (dose: 200.0 mg/kg/injection, schedule: Q01DX009 (ip), vehicle: Klucel (hydroxypropylcellulose) (HPC)): 97 % of control | T/C (dose: 400.0 mg/kg/injection, schedule: Q01DX009 (ip), vehicle: Klucel (hydroxypropylcellulose) (HPC)): 100 % of control | T/C (dose: 800.0 mg/kg/injection, schedule: Q01DX009 (ip), vehicle: Klucel (hydroxypropylcellulose) (HPC)): 98 % of control

COC(=O)[C@@H]1c2cc3c(c(O)c2[C@@H](OC)C[C@@]1(C)O)C(=O)c1c(O)cc2c(c1C3=O)OC1O[C@@]2(C)[C@H](O)[C@@H](N(C)C)[C@@H]1O
T/C (dose: 1.56 mg/kg/injection, schedule: Q01DX009 (ip), vehicle: saline): 99 % of control | T/C (dose: 3.13 mg/kg/injection, schedule: Q01DX009 (ip), vehicle: saline): 112 % of control | T/C [9]: 101 % of control | T/C [10]: 97 % of control

From PubChem BioAssay AID276 (DTP/NCI, 2004)
